From PMC11561197, “Computational-guided discovery of UDP-glycosyltransferases for lauryl glucoside production using engineered E. coli” (Bioresources and Bioprocessing, 2024)

Target: T1, RO3G (UDP-glycosyltransferase candidate, EIE92684.1) (Rhizopus delemar, UniProt I1CW54)
T1 construct: gene RO3G_17395; codon-optimised synthetic gene in pCDFDuet-1, expressed in E. coli BL21(DE3); no predicted signal peptide; not purified
T1 sequence (I1CW54 1-527): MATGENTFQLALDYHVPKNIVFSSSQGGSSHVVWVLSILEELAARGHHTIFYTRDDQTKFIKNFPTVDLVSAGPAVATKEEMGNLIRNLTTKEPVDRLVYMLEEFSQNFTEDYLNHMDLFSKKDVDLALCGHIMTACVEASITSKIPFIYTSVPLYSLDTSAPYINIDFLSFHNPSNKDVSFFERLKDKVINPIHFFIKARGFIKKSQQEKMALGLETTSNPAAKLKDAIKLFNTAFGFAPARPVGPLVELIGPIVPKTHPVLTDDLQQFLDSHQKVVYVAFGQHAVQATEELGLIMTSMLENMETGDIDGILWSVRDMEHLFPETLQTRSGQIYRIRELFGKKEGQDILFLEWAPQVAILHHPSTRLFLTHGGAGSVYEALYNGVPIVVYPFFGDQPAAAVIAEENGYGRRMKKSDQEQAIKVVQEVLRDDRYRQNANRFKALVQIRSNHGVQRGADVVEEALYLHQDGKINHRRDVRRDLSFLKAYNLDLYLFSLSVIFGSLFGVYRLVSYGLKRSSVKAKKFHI
Assay: 1-dodecanol feeding of expressing E. coli; lauryl glucoside by HPLC-RI and LC-MS
Assay type: cell-based
Settings: whole E. coli BL21(DE3), M9 with 2% glucose, 2.0 mM 1-dodecanol, 30 °C, 48 h; endogenous UDP-glucose as presumed donor; GFP strain as control

Compound: CCCCCCCCCCCCO [1-dodecanol]
- 1-dodecanol feeding of expressing E. coli; lauryl glucoside by HPLC-RI and LC-MS: The engineered strain successfully converted 1-dodecanol to lauryl glucoside, as quantified by HPLC
